Reference: PMC9313812, “The Pseudo‐Natural Product Rhonin Targets RHOGDI” (Angewandte Chemie (International Ed. in English), 2022)
In brackets after ≈: the same amount, converted by molar mass.

Tests used:
[1] = test system: Ptch1 and Gli1 expression in C3H/10T1/2 cells; experiment: RT-qPCR of Hh target genes; format: cell-based, mouse; conditions: 1.5 μM purmorphamine, 96 h
Description: three times with PBS and mounted on glass slides using Aqua Polymount (Polysciences Inc).
Images were acquired as Z-sections with Leica SP5 confocal microscope using a 63x 1.40 NA
Oil objective (Leica Microsystems CMS GmbH, Mannheim, Germany). Image analysis was
performed using the software ImageJ. Briefly, Z-stacks were converted to intensity sum
projections, after previous background subtraction. For quantification, cilia were identified and
marked based on the acetylated-tubulin staining intensities and the intensities of the anti-
Smoothened antibody were measured within these areas. Results were visualized and
significances were assessed using an unpaired t-test (confidence interval of 95%) with the
software GraphPad Prism 7, GraphPad software, USA). Three independent biological
replicates were performed and for each replicate at least 100 cilia per condition were analyzed.
Reverse transcription- quantitative PCR (RT-qPCR)
C3H10T1/2 cells were seeded (1×10^5 per well) in 6-well plates. 48 h later cells were treated […]
DNase I digestion step. The concentration of purified RNA was determined by means of the […]
QuantiTect Reverse Transcription Kit (Qiagen) according to the manufacturer’s protocol. […]
determined by means of quantitative RT-PCR using the QuantiFast SYBR Green PCR Kit […]
genes. The expression levels of Ptch1 and Gli1 were determined using the 2−ΔΔCt method.[6] […]

[2] = Kinetic solubility determination; format: physicochemical; conditions: for solubility kinetic: aqueous buffer, pH 7.4, aqueous buffer, kinetic from dmso stock, Table S9
Description: (1 picture or pasted object on this page, not shown here)
Each sample was tested in triplicate.

[3] = test system: Shh-LIGHT2 cells; experiment: GLI-dependent reporter gene assay (RGA); format: cell-based; conditions: for Inhibition of GLI-dependent reporter gene expression (in words): Shh-LIGHT2 cells
Description: using a three-fold dilution series starting from a concentration of 30 μM. Half-maximal inhibitory concentrations (IC50) were calculated using the Quattro software suite (Quattro Research, Planegg, Germany) or GraphPad Prism 7 (GraphPad, USA). […]
GLI-dependent reporter gene assay
Shh-LIGHT2 cells were seeded (2.5×10^4 per well) in 96-well plates. After incubation for 16 h, medium was replaced by low serum-containing medium (0.5% FCS) supplemented with 1.5 μM purmorphamine and various concentrations of the compounds or DMSO as a control and cells were incubated for 48 h. […]

SMILES	Expression of the Hh target genes Ptch1 and Gli1 (in words) [1]	solubility kinetic [2]	Inhibition of GLI-dependent reporter gene expression (in words) [3]	Expression of the Hh target genes Ptch1 and Gli1 (remaining) ([1]; 5 μM, purmorphamine-treated cells = 100 %)	Solubility (in words) [2]	IC50 ([3]; Shh Light2, Figure 2a, mean of three independent experiments)
COC(=O)C1(C(CC(=O)c2cccnc2)c2ccccc2)N=C(c2ccc(Br)cc2)C2C(=O)N(C)C(=O)C21 (centres unmarked) [7l]	only slightly reduced	47.3 µM (≈ 27.2 µg/mL)	did not suppress	–	–	–
COC(=O)C1(C(CC(=O)c2ccccc2)c2ccccc2)N=C(c2ccc(Br)cc2)C2C(=O)N(C)C(=O)C21 (centres unmarked) [7a]	–	5.7 µM (≈ 3.27 µg/mL)	did not inhibit	approx. 50%	limited solubility	1600 nM
